According to publication PMC12490008 (Environmental Science & Technology, 2025):
*1 amine or outer side, *2 acyl side, *3 side chain or, on linkers, in order; H or OH if unused. Where a SMILES comes first, the peptide text is derived from it. Bridges are numbered along the chain shown (N, C = ends). [ ]: non-standard residue; d: D form. hTyr = N[C@@H](CCc1ccc(O)cc1)C(=O)O; NMeA = CN[C@@H](C)C(=O)O; CO = O=C([*:1])[*:2]

Tests used:
[1] = system: River Chriesbach river water
[2] = system: River Chriesbach biofilm suspension (100%)
[3] = system: River Chriesbach biofilm suspension
[4] = system: River Chriesbach biofilm suspension (100%, 10%, 1%)

For `CC[C@H](C)[C@@H]1NC(=O)[C@H](NC(=O)N[C@@H](CCCNC(=N)N)C(=O)O)CCCCNC(=O)[C@H](Cc2ccccc2)NC(=O)[C@H](C)N(C)C(=O)[C@H](CCc2ccc(O)cc2)NC1=O` [Anabaenopeptin F] ({Arg-CO}-[dK]I[hTyr][NMeA]F; lactam 1-C), the “1d removal, River water” value [1] was -44%, the “Half-lives (h), River water” value [1] was “n.d.(decay)” and the “1.3d removal, 2% metabolite” value [2] was 100%. The “1.3d removal, 10% metabolite” value [2] was 99%, the “1.3d removal, 100% metabolite” value [2] was 62% and the “Half-lives (h), 10% metabolite” value [2] was 10.8 h. For the same compound, the “Half-lives (h), 100% metabolite” value [2] was 30.2 h, the “removal within 3 days” value [3] was “more than 50%” and the “1d removal, 1% biofilm” value [4] was -13%. The “1d removal, 10% biofilm” value [4] was 28%, the “1d removal, 100% biofilm” value [4] was 83% and the “Half-lives (h), 10% biofilm” value [4] was 106.3 h. For the same compound, the “Half-lives (h), 100% biofilm” value [4] was 11.5 h.

Aerucyclamide A was tested, and the “1d removal, River water” value [1] was -23%, the “Half-lives (h), River water” value [1] was “n.d.(decay)” and the “Lag-time (h), River water” value [1] was “n.d.(decay)”. For the same compound, the “1.3d removal, 2% metabolite” value [2] was 64%, the “1.3d removal, 10% metabolite” value [2] was 43% and the “1.3d removal, 100% metabolite” value [2] was 21%. For the same compound, the “Half-lives (h), 2% metabolite” value [2] was 28.4 h, the “Half-lives (h), 10% metabolite” value [2] was 34.9 h and the “Half-lives (h), 100% metabolite” value [2] was 56.9 h. For the same compound, the “Lag-time (h), 2% metabolite” value [2] was 28.0 h, the “Lag-time (h), 10% metabolite” value [2] was 34.8 h and the “Lag-time (h), 100% metabolite” value [2] was 56.9 h. The “removal within 3 days” value [3] was 20%, the “1d removal, 1% biofilm” value [4] was -14% and the “1d removal, 10% biofilm” value [4] was -2%. The “1d removal, 100% biofilm” value [4] was -2%, the “Half-lives (h), 1% biofilm” value [4] was “n.d.(decay)” and the “Half-lives (h), 10% biofilm” value [4] was “n.d.(decay)”. The “Half-lives (h), 100% biofilm” value [4] was 66.9 h, the “Lag-time (h), 1% biofilm” value [4] was “n.d.(decay)” and the “Lag-time (h), 10% biofilm” value [4] was “n.d.(decay)”. For the same compound, the “Lag-time (h), 100% biofilm” value [4] was 66.8 h.

With Anabaenopeptin A the “1d removal, River water” value [1] was -28%, the “Half-lives (h), River water” value [1] was “n.d.(decay)” and the “Lag-time (h), River water” value [1] was “n.d.(decay)”. The “expected river water half-lives” value [1] was 8.6 to 10.6 days, the “1.3d removal, 2% metabolite” value [2] was 100% and the “1.3d removal, 10% metabolite” value [2] was 98%. For the same compound, the “1.3d removal, 100% metabolite” value [2] was 46%, the “Half-lives (h), 2% metabolite” value [2] was 7.2 h and the “Half-lives (h), 10% metabolite” value [2] was 13.4 h. The “Half-lives (h), 100% metabolite” value [2] was 34.9 h, the “Lag-time (h), 2% metabolite” value [2] was 6.7 h and the “Lag-time (h), 10% metabolite” value [2] was 12.3 h. The “Lag-time (h), 100% metabolite” value [2] was 34.8 h, the “removal within 3 days” value [3] was 32-35% and the “1d removal, 1% biofilm” value [4] was -9%. For the same compound, the “1d removal, 10% biofilm” value [4] was 25%, the “1d removal, 100% biofilm” value [4] was 86% and the “Half-lives (h), 1% biofilm” value [4] was 177.1 h. For the same compound, the “Half-lives (h), 10% biofilm” value [4] was 103.7 h, the “Half-lives (h), 100% biofilm” value [4] was 11.5 h and the “Lag-time (h), 1% biofilm” value [4] was 98.1 h. The “Lag-time (h), 10% biofilm” value [4] was 102.8 h and the “Lag-time (h), 100% biofilm” value [4] was 10.2 h.
